Test [1] has as its system HCT116 colorectal cancer cells. Briefly: Cisplatin Sensitization Assay (96 h cell viability MTS). The test is classed as cell-based. Particulars: concentration of compound required to reduce the IC50 of Cisplatin alone by at least 3-fold; HCT116, 96 h MTS. As for the experimental part: Compounds can be screened for their ability to sensitize HCT116 colorectal cancer cells to Cisplatin using a 96 h cell viability (MTS) assay. […] Compounds and Cisplatin are then both added simultaneously to the cell media in 2-fold serial dilutions from a top final concentration of 10 μM as a full matrix of concentrations in a final cell volume of 200 μl, and the cells are then incubated at 37° C. in 5% CO2. After 96 h, 40 μl of MTS reagent (Promega G358a) is added to each well and the cells are incubated for 1 h at 37° C. in 5% CO2.

Another test has as its target T1, ATR kinase (Homo sapiens, UniProt Q13535).
T1 construct: Assays were carried out at 25° C. in the presence of 5 nM full-length ATR
The test can be described thus: ATR Inhibition Assay (radioactive-phosphate incorporation). In kind it is biochemical. Here is the method: Compounds were screened for their ability to inhibit ATR kinase using a radioactive-phosphate incorporation assay. Assays were carried out in a mixture of 50 mM Tris/HCl (pH 7.5), 10 mM MgCl2 and 1 mM DTT. Final substrate concentrations were 10 μM [γ-33P]ATP (3mCi 33P ATP/mmol ATP, Perkin Elmer) and 800 μM target peptide ([…] (SEQ. ID NO: 1)).
Assays were carried out at 25° C. in the presence of 5 nM full-length ATR. An assay stock buffer solution was prepared containing all of the reagents listed above, with the exception of ATP and the test compound of interest. 13.5 μL of the stock solution was placed in a 96 well plate followed by addition of 2 μL of DMSO stock containing serial dilutions of the test compound (typically starting from a final concentration of 15 μM with 3-fold serial dilutions) in duplicate (final DMSO concentration 7%). The plate was pre-incubated for 10 minutes at 25° C. and the reaction initiated by addition of 15 μL [γ-33P]ATP (final concentration 10 μM).
The reaction was stopped after […] by the addition of 30 μL 0.1M phosphoric acid containing 2 mM ATP. A multiscreen phosphocellulose filter 96-well plate (Millipore, Cat no. MAPHN0B50) was pretreated with 100 μL 0.2M phosphoric acid prior to the addition of 45 μL of the stopped assay mixture. The plate was washed with 5×200 μL 0.2M phosphoric acid. After drying, 100 μL Optiphase ‘SuperMix’ liquid scintillation cocktail (Perkin Elmer) was added to the well prior to scintillation counting (1450 Microbeta Liquid Scintillation Counter, Wallac).
After removing mean background values for all of the data points, Ki(app) data were calculated from non-linear regression analysis of the initial rate data using the Prism software package (GraphPad Prism version 3.0cx for Macintosh, GraphPad Software, San Diego Calif., USA).

Each structure is given as a SMILES string.

T1 sequence (Q13535 whole entry): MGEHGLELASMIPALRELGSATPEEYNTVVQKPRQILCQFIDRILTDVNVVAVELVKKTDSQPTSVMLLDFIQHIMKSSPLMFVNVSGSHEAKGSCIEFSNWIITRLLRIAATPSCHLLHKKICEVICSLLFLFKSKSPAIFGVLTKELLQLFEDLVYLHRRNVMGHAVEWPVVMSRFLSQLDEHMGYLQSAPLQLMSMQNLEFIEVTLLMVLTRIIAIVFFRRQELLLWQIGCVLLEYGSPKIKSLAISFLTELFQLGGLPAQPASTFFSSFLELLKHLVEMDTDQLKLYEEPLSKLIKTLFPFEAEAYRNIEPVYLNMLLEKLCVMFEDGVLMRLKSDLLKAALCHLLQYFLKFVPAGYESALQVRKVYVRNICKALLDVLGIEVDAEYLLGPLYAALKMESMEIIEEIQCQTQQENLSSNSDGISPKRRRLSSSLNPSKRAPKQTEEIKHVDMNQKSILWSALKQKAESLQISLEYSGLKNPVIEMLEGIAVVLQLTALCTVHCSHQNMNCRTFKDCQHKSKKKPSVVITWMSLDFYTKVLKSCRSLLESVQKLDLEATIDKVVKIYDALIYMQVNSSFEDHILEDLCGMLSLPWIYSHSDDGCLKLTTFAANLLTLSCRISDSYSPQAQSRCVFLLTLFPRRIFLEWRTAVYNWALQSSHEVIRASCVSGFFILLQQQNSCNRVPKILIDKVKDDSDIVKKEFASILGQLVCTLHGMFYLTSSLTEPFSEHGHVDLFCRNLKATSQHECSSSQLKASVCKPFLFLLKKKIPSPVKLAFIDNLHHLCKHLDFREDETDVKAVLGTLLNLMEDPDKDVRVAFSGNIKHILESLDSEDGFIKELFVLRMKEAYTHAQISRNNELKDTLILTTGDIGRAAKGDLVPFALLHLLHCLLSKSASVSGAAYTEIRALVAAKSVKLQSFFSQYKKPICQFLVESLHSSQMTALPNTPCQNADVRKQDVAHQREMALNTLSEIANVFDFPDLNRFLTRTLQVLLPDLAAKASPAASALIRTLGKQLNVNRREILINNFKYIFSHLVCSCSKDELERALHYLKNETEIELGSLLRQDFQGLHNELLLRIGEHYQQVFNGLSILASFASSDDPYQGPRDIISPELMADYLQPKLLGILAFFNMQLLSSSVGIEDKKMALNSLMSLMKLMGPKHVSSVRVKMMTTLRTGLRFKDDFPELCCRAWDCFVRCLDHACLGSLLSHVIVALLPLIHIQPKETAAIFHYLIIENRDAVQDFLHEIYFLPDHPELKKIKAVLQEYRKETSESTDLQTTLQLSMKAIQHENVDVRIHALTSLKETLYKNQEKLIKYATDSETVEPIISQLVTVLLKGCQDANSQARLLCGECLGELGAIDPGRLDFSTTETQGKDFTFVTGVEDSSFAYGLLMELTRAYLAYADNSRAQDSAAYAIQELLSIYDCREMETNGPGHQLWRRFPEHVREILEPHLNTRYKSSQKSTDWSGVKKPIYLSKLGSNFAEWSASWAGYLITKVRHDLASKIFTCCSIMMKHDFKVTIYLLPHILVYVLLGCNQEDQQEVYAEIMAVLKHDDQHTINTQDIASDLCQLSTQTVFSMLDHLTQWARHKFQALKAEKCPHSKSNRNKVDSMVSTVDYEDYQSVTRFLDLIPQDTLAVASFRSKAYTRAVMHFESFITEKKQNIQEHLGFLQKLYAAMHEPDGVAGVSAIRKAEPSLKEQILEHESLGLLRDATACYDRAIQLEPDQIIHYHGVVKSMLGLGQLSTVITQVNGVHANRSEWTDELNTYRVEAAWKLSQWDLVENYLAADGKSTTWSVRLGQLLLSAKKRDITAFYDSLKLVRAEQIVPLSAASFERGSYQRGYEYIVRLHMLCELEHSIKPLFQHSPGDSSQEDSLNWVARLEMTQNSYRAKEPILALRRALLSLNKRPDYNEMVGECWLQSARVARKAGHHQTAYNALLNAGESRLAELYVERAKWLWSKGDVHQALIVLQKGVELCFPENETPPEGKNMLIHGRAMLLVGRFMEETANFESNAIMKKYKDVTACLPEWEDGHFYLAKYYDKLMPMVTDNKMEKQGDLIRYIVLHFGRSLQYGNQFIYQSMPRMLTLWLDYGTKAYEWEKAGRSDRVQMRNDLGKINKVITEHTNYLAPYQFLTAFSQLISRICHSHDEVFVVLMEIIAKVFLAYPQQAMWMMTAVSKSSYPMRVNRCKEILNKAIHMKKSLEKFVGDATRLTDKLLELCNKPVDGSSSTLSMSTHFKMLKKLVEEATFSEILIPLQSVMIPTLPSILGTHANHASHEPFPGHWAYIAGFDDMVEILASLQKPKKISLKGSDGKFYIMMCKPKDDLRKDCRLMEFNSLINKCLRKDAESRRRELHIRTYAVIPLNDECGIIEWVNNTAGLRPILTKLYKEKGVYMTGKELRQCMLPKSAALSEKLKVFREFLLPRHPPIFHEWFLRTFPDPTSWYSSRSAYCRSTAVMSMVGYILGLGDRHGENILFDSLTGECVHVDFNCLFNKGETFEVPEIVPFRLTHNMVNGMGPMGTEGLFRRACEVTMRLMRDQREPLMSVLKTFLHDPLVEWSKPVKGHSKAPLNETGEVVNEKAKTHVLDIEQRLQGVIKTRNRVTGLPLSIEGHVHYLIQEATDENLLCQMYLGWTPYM

One may read the Ki as the equilibrium dissociation constant of an inhibitor or competing ligand from its target. Take `CC(C)S(=O)(=O)c1ccc(-c2cnc(N)c(C#Cc3ccccn3)n2)cc1` [Compound I-33, 5-(4-Isopropylsulfonylphenyl)-3-[2-(2-pyridyl)ethynyl]pyrazin-2-amine]: in test [1], the “CP3 Shift” value worked out at 2.5 µM. The Ki at ATR kinase was not above 100 nM.
For the molecule `Nc1ncc(-c2ccc(S(=O)(=O)C3CCOCC3)cc2)nc1C#Cc1cccc(O)c1` [Compound I-34, 3-[2-[3-Amino-6-(4-tetrahydropyran-4-ylsulfonylphenyl)pyrazin-2-yl]ethynyl]phenol], the “CP3 Shift” value in test [1] turned out to be 0.079 µM. Moreover, the Ki at ATR kinase was not above 100 nM.
Take `CC(C)S(=O)(=O)c1ccc(-c2cnc(N)c(C#Cc3ccccc3F)n2)cc1` [Compound I-40, 3-((2-fluorophenyl)ethynyl)-5-(4-(isopropylsulfonyl)phenyl)pyrazin-2-amine]: the “CP3 Shift” value in test [1] is 2.5 µM. The Ki on ATR kinase was not above 100 nM.
For `CC(C)S(=O)(=O)c1ccc(-c2cnc(N)c(C#Cc3ccccc3)n2)cc1` [Compound I-7, 5-(4-Isopropylsulfonylphenyl)-3-(2-phenylethynyl)pyrazin-2-amine], in that order: 2.5 µM and not above 100 nM.
For the molecule `CC(C)S(=O)(=O)c1ccc(-c2cnc(N)c(C#Cc3cccc(N)c3)n2)cc1` [Compound I-21, 3-[2-(3-Aminophenyl)ethynyl]-5-(4-isopropylsulfonylphenyl)pyrazin-2-amine], the “CP3 Shift” value in test [1] worked out at 0.312 µM. Also, the inhibition constant (Ki) on ATR kinase was not above 100 nM.
For `CC(C)S(=O)(=O)c1ccc(-c2cnc(N)c(C#Cc3cccs3)n2)cc1` [Compound I-22, 5-(4-Isopropylsulfonylphenyl)-3-[2-(2-thienyl)ethynyl]pyrazin-2-amine], in that order: 1.25 µM and not above 100 nM.
As to `CC(C)S(=O)(=O)c1ccc(-c2cnc(N)c(C#Cc3ccc(F)cc3)n2)cc1` [Compound I-14, 3-[2-(4-Fluorophenyl)ethynyl]-5-(4-isopropylsulfonylphenyl)pyrazin-2-amine], on ATR kinase, the inhibition constant (Ki) was not above 100 nM.
For `CC(C)S(=O)(=O)c1ccc(-c2cnc(N)c(C#Cc3cccc(OCCCN(C)C)c3)n2)cc1` [Compound I-20, 3-[2-[3-[3-(Dimethylamino)propoxy]phenyl]ethynyl]-5-(4-isopropylsulfonylphenyl)pyrazin-2-amine], the Ki at ATR kinase is not above 100 nM.
In the case of `CC(C)S(=O)(=O)c1ccc(-c2cnc(N)c(C#Cc3cccc(O)c3)n2)cc1` [Compound I-35, 3-[2-[3-Amino-6-(4-isopropylsulfonylphenyl)pyrazin-2-yl]ethynyl]phenol], the “CP3 Shift” value in test [1] is 0.118 µM. Moreover, the inhibition constant (Ki) at ATR kinase is not above 100 nM.
Take `CC(C)S(=O)(=O)c1ccc(-c2cnc(N)c(C#Cc3cccc(OCCN4CCOCC4)c3)n2)cc1` [Compound I-36, 5-(4-Isopropylsulfonylphenyl)-3-[2-[3-(2-morpholinoethoxy)phenyl]ethynyl]pyrazin-2-amine]: the Ki at ATR kinase was 100 to 1000 nM.
Same read-out and setting: as for `CC(C)S(=O)(=O)c1ccc(-c2cnc(N)c(C#Cc3ccccc3N3CCNCC3)n2)cc1` [Compound I-43, 5-(4-(isopropylsulfonyl)phenyl)-3-((2-(piperazin-1-yl)phenyl)ethynyl)pyrazin-2-amine], the figure is not above 100 nM; as for `N#Cc1ccccc1-c1cnc(N)c(C#Cc2cccc(O)c2)n1` [Compound I-18, 2-[5-Amino-6-[2-(3-hydroxyphenyl)ethynyl]pyrazin-2-yl]benzonitrile], not above 100 nM.
For the molecule `CC(C)S(=O)(=O)c1ccc(-c2cnc(N)c(C#C[C@@H](C)O)n2)cc1` [Compound I-4, (2R)-4-[3-Amino-6-(4-isopropylsulfonylphenyl)pyrazin-2-yl]but-3-yn-2-ol], the inhibitory constant (Ki) at ATR kinase was 100 to 1000 nM.
The same measure, in the same setting: as for `CC(C)S(=O)(=O)c1ccc(-c2cnc(N)c(C#Cc3cccc(NC(=O)CN)c3)n2)cc1` [Compound I-49, 2-amino-N-(3-((3-amino-6-(4-(isopropylsulfonyl)phenyl)pyrazin-2-yl)ethynyl)phenyl)acetamide], the figure is not above 100 nM.

The values are drawn from US8969356B2, “Compounds useful as inhibitors of ATR kinase” (Vertex Pharmaceuticals Incorporated, priority 2010, dated 2015).
